# In US8039430B2 (University of Wollongong, priority 2005, dated 2011):
# Where two headings read alike, the source gives them in different places.
# What was measured:
# [1] = test system: Staphylococcus aureus (ATCC 6538P); experiment: Antibacterial assay (MIC), Staphylococcus aureus ATCC 6538P, Luria Broth, Example 1; type: cell-based; settings: Staphylococcus aureus, ATCC6538P, read-out: Sa (minimum inhibitory concentration)
# Method: (§1) Antibacterial Assay Method for Staphylococcus aureus (ATCC 6538P) and Enterococcus faecium
# Staphylococcus aureus (ATCC 6538P)
# (§2) Compounds are accurately weighed out (between approx. 1-2 mg) and dissolved in either 10% methanol/water (v/v) or 100% DMSO to a final stock concentration of 5 mg/ml.
# (§3) Compounds are then diluted 1/10 in H2O to a test conc of 500 ug/ml ready for immediate use, or storage at −20° C.
# (§4) Grow up an o/n starter culture of Staphylococcus aureus and each VRE strain by diluting previous culture (stored at 4° C.) 1/1000 into −50 mls Luria Broth (LB) for S. aureus or Enterococossel Broth (EB) for the VRE strains.
# (§5) Incubate o/n at 37° C.+shaking. • A glycerol stock (0.6 mls bacterial culture, 0.3 mls glycerol) of each strain is kept at −80° C. if needed. Assay Set Up:
# (§6) In a 96well round bottom plate add 50 ul LB/well for the S. aureus plate and add 50 ul EB/well for the VRE plates.
# (§7) Add 50 ul of compound dilution (500 ug/ml test conc) to each of three top row wells (ie: tested in triplicate) and dilute 1 in 2 from the top row to the bottom row.
# (§8) After the compound dilution, add to each well 50 ul of a 1/1000 dilution of the appropriate overnight bacterial culture, either S. aureus or the different VRE strains.
# (§9) Plates are incubated at 37° C. on a slowly rotating plate incubator. • test concentrations are (in ug/ml) 125, 62.5, 31.25, 15.6, 7.8, 3.9, 1.9, 0.98 • final DMSO concentration in the first row of wells of the assay is 2.5% • Vancomycin is included in the assay (in triplicate) at a starting test concentration of 5 ug/ml for S. aureus and 125 ug/ml for the VRE strains Reading Results of Assay:
# (§10) After incubation for 24 hrs the plates are removed and read. Inhibition of bacterial growth is indicated by lack of bacterial pellet or a clear well. In the VRE plates bacterial growth is indicated by black coloured media (EB) as well as a bacterial pellet.
# (§11) Untreated control wells are included in the assay to check they all contain bacterial pellets. Uninoculated untreated control wells are included to check they all contain clear medium.
# (§12) The plates are analysed for MIC and the results tabulated.
# [2] = test system: #243 E. faecium van B ST17; experiment: Antibacterial assay (MIC), VRE strain #243, Enterococossel Broth, Example 1; type: cell-based, Enterococcus faecium; settings: Enterococcus faecium, read-out: 243 (minimum inhibitory concentration)
# Method: as §1
# (§13) VRE strains: #243 E. faecium van B ST17 #449 E. faecium van B ST17
# as §2, §3, §4, §5, §6, §7, §8, §9, §10, §11, §12
# [3] = test system: #449 E. faecium van B ST17; experiment: Antibacterial assay (MIC), VRE strain #449, Enterococossel Broth, Example 1; type: cell-based, Enterococcus faecium; settings: Enterococcus faecium, read-out: 449 (minimum inhibitory concentration)
# Method: as §1, §13, §2, §3, §4, §5, §6, §7, §8, §9, §10, §11, §12
# [4] = test system: #820 E. faecium van A ST17; experiment: Antibacterial assay (MIC), VRE strain #820, Enterococossel Broth, Example 1; type: cell-based, Enterococcus faecium; settings: Enterococcus faecium, read-out: 820 (minimum inhibitory concentration)
# Method: as §1
# (§14) #820 E. faecium van A ST17 #987 E. faecium van B ST39
# as §2, §3, §4, §5, §6, §7, §8, §9, §10, §11, §12
# [5] = test system: #987 E. faecium van B ST39; experiment: Antibacterial assay (MIC), VRE strain #987, Enterococossel Broth, Example 1; type: cell-based, Enterococcus faecium; settings: Enterococcus faecium, read-out: 987 (minimum inhibitory concentration)
# Method: as §1, §14, §2, §3, §4, §5, §6, §7, §8, §9, §10, §11, §12
# [6] = Example 1 compounds, S. aureus ATCC 6538P, 24 hrs, 37° C., range if at least two of three values fell within it
# [7] = Example 1 compounds, VRE #243 E. faecium van B, 24 hrs, 37° C.
# [8] = Example 1 compounds, VRE #449 E. faecium van B, 24 hrs, 37° C.
# [9] = Example 1 compounds, VRE #820 E. faecium van A, 24 hrs, 37° C.
# [10] = Example 1 compounds, VRE #987 E. faecium van B, 24 hrs, 37° C.
SMILES,MIC ([1]; 24 h),"MIC ([2]; VRE, 24 h)","MIC ([3]; VRE, 24 h)","MIC ([4]; VRE, 24 h)","MIC ([5]; VRE, 24 h)","MIC [1, 6]","MIC [2, 7]","MIC [3, 8]","MIC [4, 9]","MIC [5, 10]"
NCCCC[C@@H](NC(=O)CCCOc1ccc2ccccc2c1-c1c(OCCCC(=O)N[C@H](CCCCN)C(=O)OCc2ccccn2)ccc2ccccc12)C(=O)OCc1ccccn1 [Compound 36],> 62.6 µg/mL,> 62.6 µg/mL,> 62.6 µg/mL,> 62.6 µg/mL,> 62.6 µg/mL,–,–,–,–,–
"C=CC[C@H](NC(=O)[C@@H](CCCNC(=N)N)NC(=O)[C@@H](CCCCN)NC(=O)COc1ccc2ccccc2c1-c1c(OCC(C)C)ccc2ccccc12)C(=O)OCc1ccccc1.Cl.Cl (atropisomer, axis not shown) [Compound 25]",–,–,–,–,–,0.99 to 15.6 µg/mL,15.7 to 62.5 µg/mL,15.7 to 62.5 µg/mL,15.7 to 62.5 µg/mL,15.7 to 62.5 µg/mL
C=CCOc1ccc2ccccc2c1-c1c(OCC(=O)N[C@H](CCCN)C(=O)Nc2cccc(C(=O)NOCc3ccccc3)c2)ccc2ccccc12 [Compound 43],–,–,–,–,–,0.99 to 15.6 µg/mL,> 62.6 µg/mL,> 62.6 µg/mL,15.7 to 62.5 µg/mL,> 62.6 µg/mL
"CC(C)CCOc1ccc2ccccc2c1-c1c(OCC(=O)N[C@H](CCCCN)C(=O)N[C@H](CCCNC(=N)N)C(=O)N[C@@H](CC(C)C)C(=O)NCc2ccccc2)ccc2ccccc12.Cl.Cl (atropisomer, axis not shown) [Compound 14]",–,–,–,–,–,0.99 to 15.6 µg/mL,15.7 to 62.5 µg/mL,15.7 to 62.5 µg/mL,15.7 to 62.5 µg/mL,> 62.6 µg/mL
C=CC[C@H](NC(=O)[C@@H](CCCNC(=N)N)NC(=O)[C@@H](CCCCN)NC(=O)COc1ccc2ccccc2c1-c1c(OCC(C)(C)C)ccc2ccccc12)C(=O)OCc1ccccc1 [Compound 27],–,–,–,–,–,0.99 to 15.6 µg/mL,15.7 to 62.5 µg/mL,15.7 to 62.5 µg/mL,15.7 to 62.5 µg/mL,> 62.6 µg/mL
N=C(N)NCCC[C@@H](NC(=O)CCCOc1ccc2ccccc2c1-c1c(OCCCC(=O)N[C@H](CCCNC(=N)N)C(=O)OCc2ccccc2)ccc2ccccc12)C(=O)OCc1ccccc1 [Compound 38],0.99 to 15.6 µg/mL,15.7 to 62.5 µg/mL,–,–,–,–,–,–,–,–
"CC(C)CCOc1ccc2ccccc2c1-c1c(OCC(=O)N[C@H](CCCCN)C(=O)N[C@H](CCCNC(=N)N)C(=O)N[C@@H](CC(C)C)C(=O)OCc2ccc(Cl)cc2)ccc2ccccc12.Cl.Cl (atropisomer, axis not shown) [Compound 4]",–,–,–,–,–,0.99 to 15.6 µg/mL,15.7 to 62.5 µg/mL,15.7 to 62.5 µg/mL,15.7 to 62.5 µg/mL,15.7 to 62.5 µg/mL
"CC(C)CCOc1ccc2ccccc2c1-c1c(OCC(=O)N[C@H](CCCCN)C(=O)N[C@H](CCCNC(=N)N)C(=O)N[C@@H](CC(C)C)C(=O)OCc2cccc(Cl)c2)ccc2ccccc12.Cl.Cl (atropisomer, axis not shown) [Compound 6]",–,–,–,–,–,0.99 to 15.6 µg/mL,15.7 to 62.5 µg/mL,15.7 to 62.5 µg/mL,15.7 to 62.5 µg/mL,15.7 to 62.5 µg/mL
"C=CCOc1ccc2ccccc2c1-c1c(OCC(=O)N[C@H](CCCNC(=N)N)C(=O)Nc2cccc(C(=O)OC)c2)ccc2ccccc12.Cl (atropisomer, axis not shown) [Compound 44]",–,–,–,–,–,0.99 to 15.6 µg/mL,> 62.6 µg/mL,> 62.6 µg/mL,15.7 to 62.5 µg/mL,> 62.6 µg/mL
"CC(C)CCOc1ccc2ccccc2c1-c1c(OCC(=O)N[C@H](CCCCN)C(=O)N[C@H](CCCNC(=N)N)C(=O)N[C@@H](CC(C)C)C(=O)OCc2ccccc2)ccc2ccccc12 (atropisomer, axis not shown) [Compound 10]",–,–,–,–,–,0.99 to 15.6 µg/mL,15.7 to 62.5 µg/mL,15.7 to 62.5 µg/mL,15.7 to 62.5 µg/mL,15.7 to 62.5 µg/mL
"CC(C)CCOc1ccc2ccccc2c1-c1c(OCC(=O)N[C@H](CCCCN)C(=O)N[C@H](CCCNC(=N)N)C(=O)N[C@@H](CC(C)C)C(=O)OCc2ccc([N+](=O)[O-])cc2)ccc2ccccc12.Cl.Cl (atropisomer, axis not shown) [Compound 5]",–,–,–,–,–,0.99 to 15.6 µg/mL,15.7 to 62.5 µg/mL,15.7 to 62.5 µg/mL,15.7 to 62.5 µg/mL,15.7 to 62.5 µg/mL
"CC(C)C[C@H](NC(=O)[C@@H](CCCNC(=N)N)NC(=O)[C@@H](CCCCN)NC(=O)COc1ccc2ccccc2c1-c1c(OCCc2ccccc2)ccc2ccccc12)C(=O)OCc1ccccc1.Cl.Cl (atropisomer, axis not shown) [Compound 28]",–,–,–,–,–,0.99 to 15.6 µg/mL,15.7 to 62.5 µg/mL,15.7 to 62.5 µg/mL,15.7 to 62.5 µg/mL,15.7 to 62.5 µg/mL
"C=CCOc1ccc2ccccc2c1-c1c(OCC(=O)N[C@H](CCCNC(=N)N)C(=O)Nc2cccc(C(=O)NOCc3ccccc3)c2)ccc2ccccc12.Cl (atropisomer, axis not shown) [Compound 46]",–,–,–,–,–,0.99 to 15.6 µg/mL,> 62.6 µg/mL,> 62.6 µg/mL,> 62.6 µg/mL,> 62.6 µg/mL
"C=CC[C@H](NC(=O)[C@@H](CCCNC(=N)N)NC(=O)[C@@H](CCCCN)NC(=O)COc1ccc2ccccc2c1-c1c(OCC2CCC2)ccc2ccccc12)C(=O)OCc1ccccc1.Cl.Cl (atropisomer, axis not shown) [Compound 24]",–,–,–,–,–,0.99 to 15.6 µg/mL,15.7 to 62.5 µg/mL,15.7 to 62.5 µg/mL,15.7 to 62.5 µg/mL,15.7 to 62.5 µg/mL
CC(C)CCOc1ccccc1-c1ccccc1OCC(=O)N[C@H](CCCCN)C(=O)N[C@H](CCCNC(=N)N)C(=O)N[C@@H](CC(C)C)C(=O)OCc1ccccc1.Cl.Cl [Compound 11],–,–,–,–,–,0.99 to 15.6 µg/mL,15.7 to 62.5 µg/mL,15.7 to 62.5 µg/mL,15.7 to 62.5 µg/mL,15.7 to 62.5 µg/mL
"C=CCOc1ccc2ccccc2c1-c1c(OCC(=O)N[C@H](CCCCN)C(=O)N[C@H](CCCNC(=N)N)C(=O)N[C@@H](CC(C)C)C(=O)OCc2ccccc2)ccc2ccccc12.Cl.Cl (atropisomer, axis not shown) [Compound 22]",–,–,–,–,–,0.99 to 15.6 µg/mL,15.7 to 62.5 µg/mL,15.7 to 62.5 µg/mL,15.7 to 62.5 µg/mL,15.7 to 62.5 µg/mL
"CC(C)CCOc1ccc2ccccc2c1-c1c(OCC(=O)N[C@H](CCCCN)C(=O)N[C@H](CCCNC(=N)N)C(=O)N[C@@H](CC(C)C)c2ncc(Cc3ccccc3)o2)ccc2ccccc12.Cl.Cl (atropisomer, axis not shown) [Compound 18]",–,–,–,–,–,0.99 to 15.6 µg/mL,15.7 to 62.5 µg/mL,15.7 to 62.5 µg/mL,15.7 to 62.5 µg/mL,15.7 to 62.5 µg/mL
COC(=O)[C@@H](CCCNC(=N)N)NC(=O)CCCOc1ccc2ccccc2c1-c1c(OCCCC(=O)N[C@H](CCCNC(=N)N)C(=O)OC)ccc2ccccc12 [Compound 33],0.99 to 15.6 µg/mL,–,> 62.6 µg/mL,> 62.6 µg/mL,–,–,–,–,–,–
